# Test results taken from patent publication US11332485B2, “Penicillin-binding protein inhibitors” (priority 2017, dated 2022).
# pEC50: −log10 of the molar value.
# Assays:
# E. coli PBP1b = assay: Bocillin FL competition binding assay (SDS-PAGE gel, membrane PBPs); design: species or system Escherichia coli; details: 15 min. pre-incubation, membrane protein extracts, SDS-PAGE fluorescence scan
# Procedure: (§1) To determine the ability of test compounds to bind Penicillin Binding Proteins (PBPs), a competition binding assay using Bocillin FL (fluorescent derivative of penicillin V) was adapted from the classical method used to assess PBP potency of beta-lactams.
# Penicillin binding proteins were isolated from Escherichia coli K12 by growth of Escherichia coli K12 from a single colony in 4 L of Luria-Bertani (LB) broth at 35° C. and 250 rpm to an OD600 nm of 0.5. The cells were harvested by centrifugation at 7,000×g for 10 min. at 4° C. Cells were resuspended and washed in 50 mM potassium phosphate pH 7.5. […] The membrane proteins are washed twice with 10 mM sodium phosphate pH 7, resuspended in a volume of 5 mL, quantitated by BCA assay, adjusted to 10 μg/mL and frozen at −80° C. until use.
# The adapted Bocillin FL competition binding assay described herein incorporates a 15 min. pre-incubation of test compound with isolated PBPs to attempt to balance the difference in mechanism of inhibition between beta-lactams (largely irreversible covalent bond to active site Serine) and the boron-containing PBP inhibitor test compounds (reversible covalent bond to active site Serine). […] The SDS-PAGE gel, post-electrophoresis, is then washed in water to remove excess SDS for 10 minutes at room temperature and placed on the scanning bed of a GE Healthcare/Amersham Biosciences Storm 860 fluorescence scanner. […]
# [1] = biological target: T1, PBP1a from Escherichia coli (Escherichia coli, UniProt P02918); assay: Radioligand competition binding assay with 14C-labeled boronic acid probe (Example 96); details: 14C-labeled probe 96 at 20 μM, PBP 0.1 μM; read-out: E. coli K12 PBP1a EC50
# T1 construct: made in house
# T1 sequence (P02918 whole entry): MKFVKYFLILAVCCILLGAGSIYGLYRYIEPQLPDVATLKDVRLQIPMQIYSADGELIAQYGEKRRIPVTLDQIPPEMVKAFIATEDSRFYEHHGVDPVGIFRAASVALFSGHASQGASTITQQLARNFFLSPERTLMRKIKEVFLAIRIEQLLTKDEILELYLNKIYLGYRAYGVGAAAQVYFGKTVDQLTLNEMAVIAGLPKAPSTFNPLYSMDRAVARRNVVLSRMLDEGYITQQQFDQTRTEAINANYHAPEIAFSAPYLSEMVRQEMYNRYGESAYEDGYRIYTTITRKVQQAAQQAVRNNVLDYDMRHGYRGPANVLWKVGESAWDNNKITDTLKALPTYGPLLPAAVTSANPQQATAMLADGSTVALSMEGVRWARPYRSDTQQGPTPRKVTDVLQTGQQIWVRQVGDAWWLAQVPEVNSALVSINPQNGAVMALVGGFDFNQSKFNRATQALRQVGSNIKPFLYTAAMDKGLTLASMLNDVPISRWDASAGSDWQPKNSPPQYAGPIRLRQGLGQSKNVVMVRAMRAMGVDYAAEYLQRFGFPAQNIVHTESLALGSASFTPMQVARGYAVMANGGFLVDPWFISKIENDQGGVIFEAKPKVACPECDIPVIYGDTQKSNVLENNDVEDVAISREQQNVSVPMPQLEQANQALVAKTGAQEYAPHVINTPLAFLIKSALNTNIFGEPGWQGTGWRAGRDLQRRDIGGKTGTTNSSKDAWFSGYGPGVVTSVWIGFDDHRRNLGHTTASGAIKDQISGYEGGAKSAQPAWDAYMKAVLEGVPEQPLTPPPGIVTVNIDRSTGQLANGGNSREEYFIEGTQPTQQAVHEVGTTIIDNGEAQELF
# Procedure, shortened: (§2)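 Purified PBP (0.1 μM) in 20 mM Tris pH 7.5, 500 mM NaCl, 0.1% Triton X-100 preincubated 60 min with inhibitor, then 60 min with 20 μM 14C-boronic acid probe. Bound probe recovered by spin desalting and counted by scintillation; EC50 is the concentration halving probe binding.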
# [2] = biological target: T2, PBP1b from Escherichia coli (Escherichia coli, UniProt P02919); assay: as above; details: 14C-labeled probe 96 at 20 μM, PBP 0.1 μM; read-out: E. coli K12 PBP1b EC50
# T2 construct: made in house
# T2 sequence (P02919 whole entry): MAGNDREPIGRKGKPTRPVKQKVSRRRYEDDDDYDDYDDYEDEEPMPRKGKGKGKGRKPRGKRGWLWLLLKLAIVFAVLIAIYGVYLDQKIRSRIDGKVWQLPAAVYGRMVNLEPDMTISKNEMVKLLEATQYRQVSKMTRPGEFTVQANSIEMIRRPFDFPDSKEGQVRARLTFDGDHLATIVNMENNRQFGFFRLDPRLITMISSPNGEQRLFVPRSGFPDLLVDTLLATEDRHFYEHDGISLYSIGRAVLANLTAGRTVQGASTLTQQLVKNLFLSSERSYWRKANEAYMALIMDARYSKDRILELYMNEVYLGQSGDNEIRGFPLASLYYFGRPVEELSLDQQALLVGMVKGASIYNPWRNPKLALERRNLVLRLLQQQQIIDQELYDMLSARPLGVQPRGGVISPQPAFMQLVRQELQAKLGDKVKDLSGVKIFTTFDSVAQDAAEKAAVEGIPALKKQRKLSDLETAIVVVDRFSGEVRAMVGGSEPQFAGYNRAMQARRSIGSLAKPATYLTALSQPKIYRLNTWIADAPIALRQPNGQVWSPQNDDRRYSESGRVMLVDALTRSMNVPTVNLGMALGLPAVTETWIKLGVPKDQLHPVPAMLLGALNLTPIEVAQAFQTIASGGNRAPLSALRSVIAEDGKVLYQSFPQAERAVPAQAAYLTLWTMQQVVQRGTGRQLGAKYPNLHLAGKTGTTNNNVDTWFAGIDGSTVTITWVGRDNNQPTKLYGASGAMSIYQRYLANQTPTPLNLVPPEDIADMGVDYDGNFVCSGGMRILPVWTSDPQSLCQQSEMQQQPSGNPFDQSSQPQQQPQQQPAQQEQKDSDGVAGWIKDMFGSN
# Procedure, shortened: as §2
# E. coli K12 PBP1a = biological target: T3, E. coli K12 PBP1a (Escherichia coli, UniProt P02918); assay: Bocillin FL competition binding assay (SDS-PAGE gel, membrane PBPs); details: 15 min. pre-incubation, membrane protein extracts, SDS-PAGE fluorescence scan
# T3 construct: 100 μg's of total membrane protein extracts containing PBPs; endogenous in cells; host or cells: Escherichia coli K12 membrane fraction
# T3 sequence (P02918 whole entry): as the sequence (P02918 whole entry) above
# Procedure: as §1
# (§3) Penicillin binding proteins were isolated from Escherichia coli K12 by growth of Escherichia coli K12 from a single colony in 4 L of Luria-Bertani (LB) broth at 35° C. and 250 rpm to an OD600 nm of 0.5. The cells were harvested by centrifugation at 7,000×g for 10 min. at 4° C. Cells were resuspended and washed in 50 mM potassium phosphate pH 7.5. The cells were re-suspended in sonication buffer [50 mM Tris-HCl pH 7.5, 1 mM MgCl2, 1 mM beta-mercaptoethanol, and 5 μg/mL DNAse I] and sonicated by 4 passes of 30 seconds at 45 W on ice. The sample was clarified by centrifugation at 3,000×g to remove cell debris and unbroken cells and supernatant containing the membrane proteins was retained. The membrane proteins including the PBPs were further purified from soluble constituents by an ultracentrifugation step at 100,000×g for 30 min. at 4° C. The membrane proteins are washed twice with 10 mM sodium phosphate pH 7, resuspended in a volume of 5 mL, quantitated by BCA assay, adjusted to […] and frozen at −80° C. until use.
# (§4) The adapted Bocillin FL competition binding assay described herein incorporates a 15 min. pre-incubation of test compound with isolated PBPs to attempt to balance the difference in mechanism of inhibition between beta-lactams (largely irreversible covalent bond to active site Serine) and the boron-containing PBP inhibitor test compounds (reversible covalent bond to active site Serine). Briefly, 50 μL reactions consisted of 100 μg's of total membrane protein extracts containing PBPs incubated with a dilution series of test compound ranging from 0.005 μg/mL to 2,480 μg/mL in 10 mM sodium phosphate pH7 containing 350 mM NaCl. Thirty minute reactions at 35° C. were initiated by addition of […] Bocillin FL, quenched by addition of SDS-PAGE loading buffer containing sodium dodecyl sulfate (SDS) and heated for 15 minutes at 95° C. to denature proteins in preparation for SDS-polyacrylamide gel electrophoresis. The Bocillin FL labeled PBPs are then separated by SDS-PAGE in Novex NuPage 10% Bis-Tris pre-cast gels (Invitrogen). The SDS-PAGE gel, post-electrophoresis, is then washed in water to remove excess SDS for 10 minutes at room temperature and placed on the scanning bed of a GE Healthcare/Amersham Biosciences Storm 860 fluorescence scanner. […] Effective PBP inhibitors are detected by a reduction in Bocillin FL labeling of the particular PBP over the dose range of test compound in a dose-responsive manner. […]
# E. coli PBP3 = biological target: T4, E. coli PBP3 (Escherichia coli, UniProt P0AD68); assay: as above; details: 15 min. pre-incubation, membrane protein extracts, SDS-PAGE fluorescence scan
# T4 construct: 100 μg's of total membrane protein extracts containing PBPs; endogenous in cells; host or cells: Escherichia coli K12 membrane fraction
# T4 sequence (P0AD68 1-577): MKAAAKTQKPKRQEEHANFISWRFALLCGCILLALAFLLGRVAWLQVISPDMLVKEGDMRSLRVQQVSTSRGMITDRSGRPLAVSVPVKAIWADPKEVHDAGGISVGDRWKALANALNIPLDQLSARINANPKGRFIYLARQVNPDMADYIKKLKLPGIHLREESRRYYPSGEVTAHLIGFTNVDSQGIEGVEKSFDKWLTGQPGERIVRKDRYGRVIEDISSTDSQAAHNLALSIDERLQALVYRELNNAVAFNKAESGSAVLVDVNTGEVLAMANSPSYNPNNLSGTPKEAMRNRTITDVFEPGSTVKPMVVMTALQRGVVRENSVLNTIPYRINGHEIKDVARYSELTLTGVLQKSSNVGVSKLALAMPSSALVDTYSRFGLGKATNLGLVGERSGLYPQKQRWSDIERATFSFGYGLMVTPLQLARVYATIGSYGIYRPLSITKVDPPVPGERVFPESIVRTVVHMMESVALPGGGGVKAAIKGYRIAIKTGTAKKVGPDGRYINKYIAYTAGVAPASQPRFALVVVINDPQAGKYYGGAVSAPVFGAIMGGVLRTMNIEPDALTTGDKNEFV
# Procedure: as §1, §3, §4
smiles,measurement,setting,value
"CCN1CCN(C(=O)NC(C(=O)N[C@H]2Cc3cccc(C(=O)O)c3OB2O)c2csc(N)n2)C(=O)C1=O (stereo partly drawn) [Example 12, (3R)-3-(2-(2-aminothiazol-4-yl)-2-(4-ethyl-2,3-dioxopiperazine-1-carboxamido)acetamido)-2-hydroxy-3,4-dihydro-2H-benzo[e][1,2]oxaborinine-8-carboxylic acid]",E. coli PBP1b Potency,E. coli PBP1b,C (C represents a potency of <64 μg/mL)
same,pEC50,[1],> 5.00
same,pEC50,[2],> 5.00
same,E. coliK12 PBP1a Potency,E. coli K12 PBP1a,B (B represents a potency between 64 and 1000 μg/mL inclusive)
same,E. coli PBP3 Potency,E. coli PBP3,A (A represents a potency of >1000 μg/mL)
